The test system of test [1] is human skin fibroblasts, mouse striatal cells, human embryonic kidney cells, and Hela cells. The test can be described thus: OCR and ECAR in other cell types. The test is classed as cell-based. The settings on record: 50 μM, 200 minutes. Here is the method: The OCR and ECAR measurements on HeLa, 293, and STHdh^Q7/7 mouse striatal cells were carried out by growing them in XF24 plates at 40,000/well (HeLa) and STHdh^Q7/7 mouse striatal cells) and 60,000/well (293 cells) for ˜20 hours in their regular growth conditions. The assay medium was the same as above except that 25 mM glucose was used as the sugar source. The measurements were performed simultaneously every 7 minutes after a 2 minute mix and 2 minute wait period for MCH fibroblasts and every 6 minutes (with 2 minutes mix and 2 minute wait) for HeLa, 293, and STHdh^Q7/7 mouse striatal cells. Three baseline measurements were recorded prior to the addition of oligomycin (Biochemika 75352), Antimycin (Sigma A8674), roetnone (Sigma R8875), carbonyl cyanide 3-chlorophenylhydrazone (Sigma C2759) and meclizine hydrochloride (MSDiscovery 01500376). 50 mM stock solution of meclizine was made in DMSO, which was diluted to specified concentration in assay medium and its pH was adjusted to 7.4 by 1N Sodium hydroxide solution. The measurements were carried out at 33° C. for mouse striatal cells but for all other cell types measurement were done at 37° C.

For test [2], the system named is Trypanosoma brucei. In words: Effectiveness against Trypanosoma brucei. As to conditions: kills Trypanosoma brucei; read-out: ED50 (the source's name). The format is cell-based.
Test [3] concerns male C57BL/6 mice. The test can be described thus: Murine model of stroke (transient middle cerebral artery occlusion). The test is classed as in vivo, mouse.
Test [4] concerns AMPK. In words: Western blot detection of AMPK phosphorylation. The test is classed as cell-based. The settings on record: C2C12 myotubes, 24 hours of treatment. Here is the method: The ability of meclizine, S-meclizine and R-meclizine to activate AMPK in C2C12 myotubes was also evaluated using Western blot detection of AMPK phosphorylation in C2C12 myotubes following 24 hours of treatment with R-meclizine (R-Mec), S-meclizine (S-Mec) and the racemic mixture (Rac-Mec).
Background: In western blotting, separated proteins are transferred to a membrane and probed.

The subject of test [5] is 293 cells. In words: Uncoupler (CCCP)-stimulated respiration in intact cells. The format is cell-based. The settings on record: 25 μM, 6 hours pre-treatment. Here is the method: 293 cells pre-treated with 25 μM meclizine for 6 hours fail to stimulate oxygen consumption to the same extent as DMSO treated controls after treatment with CCCP. Data expressed as mean±SD (n=3; *p value<0.01).
The upregulation of phosphoethanolamine was confirmed by orthogonal chromatography, as well as via ^31P-NMR. […] Previous studies have shown that phosphoethanolamine can be elevated in tumor cells, and that ethanolamine and PEA can directly silence mitochondrial OXPHOS. Zhu et al., J Lipid Res 49: 2197 (2008); and Modica-Napolitano et al., Biol Psychiatry 55:273 (2004). To test the effect of phosphoethanolamine (PEA) on mitochondrial respiration, mitochondria were incubated with varying concentration of phosphoethanolamine for ˜1 min prior to the addition of 2.5 mM glutamate and 2.5 mM malate followed by the addition of 1 μM CCCP. […] See FIGS. 16A and 16B, respectively.

The subject of test [6] is MCH58 fibroblasts. In words: Glucose versus galactose cell growth screen (metabolic state-dependent lethality). The settings on record: approximately 10 μM compound, 72 hours; log10 fold change of normalized cell number in glucose versus galactose.
Procedure: The assay included monitoring or measuring cell growth in cells that are grown in glucose (which allows the cell to utilize glycolysis) or in galactose (which switches the cell energy production from glycolysis to the OXPHOS pathway).
The high glucose medium was replaced with 10 mM glucose or 10 mM galactose wherever indicated. All media contained 1 mM pyruvate and 4 mM glutamine.
Cell number quantification high throughput assays were performed as follows. […] 24 hours later, cells were washed twice in PBS and media was replaced with either 10 mM glucose or 10 mM galactose containing media.
Approximately 100 nL of each compound was pin-transferred in duplicate into the plates with a steel pin array using the CyBi-Well robot (CyBio). […] Compound-treated plates were incubated at 37° C. for 72 hours. […] Wells were then washed once and stored in PBS. Cell culture plates were stored at 4° C. until time of imaging, which was at most 24 hours after fixation.
Imaging was performed by Arrayscan VTi automated microscope (ThermoFisher Scientific) with the use of an automated plate stacker. Appropriate filter sets for the detection of the Hoescht fluorescent signal were used. Four non-overlapping images at 5× magnification (NA 0.25) were acquired for a field of view of 1.3 mm×1.3 mm per image. The plate stacker and microscope including an auto-focusing algorithm were controlled entirely with ArrayScan software. Images were captured and stored simultaneously in at least two independent locations. Image analysis was performed using the freely available open-source software package CellProfiler. […] Images were analyzed individually by first identifying nuclei using the Hoescht staining signal.
Total number of nuclei per field were recorded, and the four images per well were totaled to give the cell count per well. Computation was performed using a UNIX computer cluster. Appropriate masking of each nucleus was ensured by visually monitoring each batch at its onset and intermittently throughout the run.
The fibroblast cells were seeded on Day 0 and incubated for 24 hours in standard culture media.
Normalized cell counts were computed separately for each 96-well plate by dividing the cell count of each well with the trimmed mean (the average after discarding the largest and smallest value) of the cell counts for the 16 DMSO treated wells. […] The remaining replicate measurements were averaged, and fold changes were computed as the ratio between the average normalized counts for the glucose and galactose screens. To evaluate statistical significance, Z-scores were computed for each well against the DMSO (null) distribution and averaged Z-scores across replicates. Wells with average Z-score greater than 2.5 were considered significant.
By jointly analyzing the glucose and galactose results, a glucose-galactose cell growth ratio can be calculated (Sglu/gal) that represents the log10 fold-change in cell growth in a glucose rich media divided by the log10 fold-change in cell growth in a galactose rich media. […] Low Sglu/gal scores (e.g., ranging between approximately (−) 0.1 to (−) 0.7) may arise from inhibition of glycolysis or from inhibition of proliferation, since cells grown in glucose-rich media divide more rapidly.
For test [7], the system named is UAS-Htt-Q128/elav-GAL4 flies. The test can be described thus: Transgenic Drosophila melanogaster model of Huntington's disease. The format is in vivo. The settings on record: 33 μM, 10 days. As to the method:
Meclizine was also tested in a transgenic insect model of Huntington's disease in which the first 548 amino acids of human Htt (containing 128 glutamines) was expressed in the […] of Drosophila melanogaster. The UAS-Htt-Q0 and UAS-Htt-[…] lines encoding the first 548 amino acids of human Htt containing either 0 or 128 glutamines, respectively (7), were gifts from Troy Littleton. The elav-GAL4 driver was from the Bloomington Stock Center (#8765). The UAS-Htt-[…] line was crossed to elav-GAL4/CyO to obtain […] flies. Equal numbers of newly enclosed UAS-[…] flies were added to vials containing Carolina Biological Instant Fly food that had been freshly made up with water and meclizine or DMSO vehicle at different concentrations (100, 33, 11 or 3 μM). Flies were changed to fresh food and drug every 2 days and were maintained at 25° C. throughout the experiment. Neurodegeneration was assessed using the pseudopupil technique at day 10 by scoring the rhabdomere number/ommatidium from at least 8 animals for each condition; see Jackson et al., Neuron 21:633 (1998). The experiment was performed twice and scoring was conducted in a blinded manner. Western blot analysis using mouse anti-human HD (mAb2216 from Chemicon, Temecula, Calif.) was performed using lysates from UAS-[…] adult flies that had been fed on either meclizine or DMSO at 33 μM for 10 days.

Test [8] concerns Immortalized mouse striatal 20A5 cells. The test can be described thus: Oxygen and glucose deprivation model of ischemia and reperfusion. The test is classed as cell-based. The settings on record: 25 μM pretreatment for 8 hours, over vehicle. As to the method:
Immortalized mouse striatal 20A5 cells grown in DMEM with 10% dialyzed fetal bovine serum were exposed to oxygen and glucose deprivation for 18 hours followed by 12 hours of recovery in normoxia with full media. This IR model induces roughly 30% decrease in cell viability as measured by the ATP luminescence assay CellTiter-GLO.

For test [9], the system named is primary cortical neurons isolated from mouse embryos. The test can be described thus: OCR in primary cortical neurons. The test is classed as cell-based. The settings on record: 5 and 10 μM. Here is the method:
Oxygen consumption rate (OCR) measurements following meclizine (5 and 10 μM) or antimycin (1 μM) addition at time 0 (min) in mouse primary cortical neurons obtained from day E14-15 embryos. Data are expressed as mean+/−SD (n≧3).
Meclizine was confirmed to shift a cell's relative reliance on OXPHOS versus glycolysis by whole cell bioenergetic kinetic assays. […] This was true in primary cardiomyocytes isolated from rat heart (FIG. 3K) and primary cortical neurons isolated from mouse embryos (FIG. 3L). Cardiomyocytes were exposed to the indicated concentration of meclizine for 20 min followed by oxygen measurement in a respiration chamber. Oxygen consumption rate (OCR) measurements were made following meclizine (5 and 10 μM) or antimycin (1 μM) addition at time 0 (min) in mouse primary cortical neurons obtained from day E14-15 embryos.

The test system of test [10] is isolated, ex vivo, hearts. The test can be described thus: Ischemia-reperfusion in isolated ex vivo retrograde-perfused (Langendorf) hearts. As to conditions: compared to untreated controls. As to the method:
The effect of meclizine in isolated, ex vivo, hearts was assessed using retrograde-perfused hearts and the Langendorf heart (Nadtochiy et al., Biochem. J., 395:611-618 (2006)). Hearts were then subjected to a period of ischemia followed by reperfusion.

The structures appear in SMILES notation. Counter-ions that a name gives are not always drawn.

Regarding `Cc1cccc(CN2CCN(C(c3ccccc3)c3ccc(Cl)cc3)CC2)c1` (racemic) [Meclizine, meclizine hydrochloride], the “oxygen consumption and extracellular acidification rate in other cell types” value in [1] was “reductions in oxygen consumption and concomitant increase in extracellular acidification rate”. In addition, in test [2], the EC50 stood at 1.41 ± 0.12 µM. In test [3] (100 mg/kg i.p.), the “CBF (cerebral blood flow)” value is “did not differ significantly”. For the same compound, in test [3] (two intraperitoneal injections of 100 mg/kg at 17 and 3 hours before ischemia), the “infarct volume (brain)” value was “significantly lower”. Besides, the “AMPK activation (phosphorylation)” value in test [4] is given as “activate AMPK”. Besides, the “uncoupler-stimulated respiration in intact cells” value in test [5] was “blunts uncoupler-stimulated respiration”. Moreover, the “Sglu/gal (log10 fold change) Score” value in [6] turned out to be 0.16. Moreover, the “transgenic protein expression (flies)” value in [7] is “did not influence”. Further, the rhabdomere loss entry in test [7] (compared to DMSO) is listed as “did protect against rhabdomere loss”. Further, the “cell viability after oxygen and glucose deprivation” value in [8] is given as “significant improvement in cell viability”. For the same compound, the “respiration (OCR) in primary cortical neurons” value in test [9] is reported as “inhibits respiration”. Also, in test [10], the “infarct size (heart)” value is recorded as “smaller infarct size” and the “rate pressure after I/R” value is recorded as “increase in rate pressure”.

The values are drawn from US9399032B2, “Methods and compositions for treating degenerative and ischemic disorders” (The General Hospital Corporation, priority 2009, dated 2016).
